Test results taken from patent publication US20240217957A1, “HETEROCYCLIC COMPOUND AND USE THEREOF” (TAKEDA PHARMACEUTICAL COMPANY LIMITED, priority 2022, published 2024).

biological target: T1, human OX2 receptor (Homo sapiens, UniProt O43614); experiment: Measurement of orexin type 2 receptor agonist activity (calcium fluorescence, Fluo-4 AM, FDSS); type: cell-based; conditions: compound at 3 μM; CHO cells forcibly expressing human OX2 receptor; DMSO = 0%, 10 nM orexin A (human) = 100%
T1 construct: expressed in transfected cells
T1 sequence (O43614 1-444): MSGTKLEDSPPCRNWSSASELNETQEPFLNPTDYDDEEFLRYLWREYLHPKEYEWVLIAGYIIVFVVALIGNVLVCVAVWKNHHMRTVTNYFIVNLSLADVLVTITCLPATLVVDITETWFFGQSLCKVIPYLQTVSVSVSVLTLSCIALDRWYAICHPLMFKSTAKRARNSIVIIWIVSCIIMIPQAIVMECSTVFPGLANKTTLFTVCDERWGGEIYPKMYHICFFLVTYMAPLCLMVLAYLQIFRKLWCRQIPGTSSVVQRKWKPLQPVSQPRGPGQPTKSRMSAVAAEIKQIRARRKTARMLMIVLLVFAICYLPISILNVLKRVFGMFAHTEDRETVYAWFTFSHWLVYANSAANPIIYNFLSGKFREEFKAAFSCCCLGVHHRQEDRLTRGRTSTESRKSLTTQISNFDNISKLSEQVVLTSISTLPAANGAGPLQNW
Protocol: In order to obtain cell clones that stably express human orexin type 2 receptor, human orexin type 2 (residues 1-444, NCBI Reference Sequence: AK314279) was constructed in a pcDNA3.1 (+) vector (Invitrogen) to express in mammalian cells. This plasmid DNA was transfected into CHO-K1 cells by electroporation, and stable clones were obtained by limiting dilution using resistance to G418 as a selection marker.
CHO cells in which human OX2 receptor was forcibly expressed were seeded at 10,000 cells/well into a 384-well black transparent bottom plate (BD falcon), and were incubated at 37° C., 5% CO2 for 1 day after incubation at room temperature for 30 minutes. After removing the cell plate medium, assay buffer containing calcium indicator A (HBSS (Thermo Fisher Scientific), 20 mM HEPES (Thermo Fisher Scientific), 0.1% BSA (Sigma-Aldrich), 2.5 μg/mL Fluo-4 AM (Dojin Kagaku), 0.08% Pluronic F127 (Dojin Kagaku), 1.25 mM probenecid (Dojin Kagaku)) was added at 30 μL/well. After incubation in a 5% CO2 incubator at 37° C. for 30 minutes, it was incubated at room temperature for another 30 minutes. Add 10 μL/well of the test compound diluted with assay buffer B (HBSS, 20 mM HEPES, 0.1% BSA), and use FDSS uCELL (Hamamatsu Photonics) to measure the fluorescence value every 1 second for 1 minute, and then every 2 seconds for […]. It was measured for 1 minute and 40 seconds. The amount of fluorescence value when DMSO is added instead of the test compound is defined as 0%, and the amount of fluorescence value when orexin A (human) (Peptide Institute) with a final concentration of 10 nM is added is defined as 100%. The activity (%) of the test compound was calculated.

SMILES | OX2R agonist activity (3 μM, %) [%]
Cc1cnc([C@@H]2CC(N3C[C@@H](NS(C)(=O)=O)[C@@](C)(F)C3)=NO2)c(-c2c(F)cc(F)cc2F)c1 (single isomer, unassigned) [Example 75, optical isomer of N-[(3R,4S)-4-fluoro-4-methyl-1-{(5S)-5-[5-methyl-3-(2,4,6-trifluorophenyl)pyridin-2-yl]-4,5-dihydro-1,2-oxazol-3-yl}pyrrolidin-3-yl]methanesulfonamide or N-[(3S,4R)-4-fluoro-4-methyl-1-{(5S)-5-[5-methyl-3-(2,4,6-trifluorophenyl)pyridin-2-yl]-4,5-dihydro-1,2-oxazol-3-yl}pyrrolidin-3-yl]methanesulfonamide] | 105
Cc1cnc(C2(C(F)F)CC(N3C[C@@H](NS(C)(=O)=O)C(F)(F)C3)=NO2)c(-c2c(F)cc(F)cc2F)c1 (stereo partly drawn) [Example 14, N-[(3R)-1-{5-(difluoromethyl)-5-[5-methyl-3-(2,4,6-trifluorophenyl)pyridin-2-yl]-4,5-dihydro-1,2-oxazol-3-yl}-4,4-difluoropyrrolidin-3-yl]methanesulfonamide] | 106
Cc1cnc([C@@H]2CC(N3C[C@H](F)[C@H](NS(=O)(=O)N(C)C)C3)=NO2)c(-c2c(F)cccc2F)c1 [Example 79, N′-[(3R,4S)-1-{(5S)-5-[3-(2,6-difluorophenyl)-5-methylpyridin-2-yl]-4,5-dihydro-1,2-oxazol-3-yl}-4-fluoropyrrolidin-3-yl]-N,N-dimethylsulfuric diamide] | 100
Cc1cnc([C@@H]2CC(N3C[C@@H](F)[C@H](NS(C)(=O)=O)C3)=NO2)c(-c2c(F)cc(F)cc2F)c1 [Example 48, N-[(3R,4R)-4-fluoro-1-{(5S)-5-[5-methyl-3-(2,4,6-trifluorophenyl)pyridin-2-yl]-4,5-dihydro-1,2-oxazol-3-yl}pyrrolidin-3-yl]methanesulfonamide] | 94
Cc1cnc(C2(C)CC(N3C[C@@H](NS(C)(=O)=O)C(F)(F)C3)=NO2)c(-c2c(F)cccc2F)c1 (stereo partly drawn) [Example 76, N-[(3R)-1-{5-[3-(2,6-difluorophenyl)-5-methylpyridin-2-yl]-5-methyl-4,5-dihydro-1,2-oxazol-3-yl}-4,4-difluoropyrrolidin-3-yl]methanesulfonamide] | 108
CS(=O)(=O)N[C@@H]1CN(C2=NOC(c3ncc(F)cc3-c3c(F)cc(F)cc3F)C2)CC1(F)F (stereo partly drawn) [Example 70, N-[(3R)-4,4-difluoro-1-{5-[5-fluoro-3-(2,4,6-trifluorophenyl)pyridin-2-yl]-4,5-dihydro-1,2-oxazol-3-yl}pyrrolidin-3-yl]methanesulfonamide] | 94
CCS(=O)(=O)N[C@H]1CCN(C2=NOC(c3ccccc3-c3c(F)cccc3F)C2)C1 (stereo partly drawn) [Example 3, N-{(3S)-1-[5-(2′,6′-difluoro[1,1′-biphenyl]-2-yl)-4,5-dihydro-1,2-oxazol-3-yl]pyrrolidin-3-yl}ethanesulfonamide] | 95
O=S(=O)(CF)N[C@@H]1CN(C2=NO[C@](CF)(c3ncc(F)cc3-c3c(F)cccc3F)C2)C[C@@H]1F [Example 162, N-[(3R,4S)-1-{(5S)-5-[3-(2,6-difluorophenyl)-5-fluoropyridin-2-yl]-5-(fluoromethyl)-4,5-dihydro-1,2-oxazol-3-yl}-4-fluoropyrrolidin-3-yl]-1-fluoromethanesulfonamide] | 103
CS(=O)(=O)N[C@@H]1CN(C2=NOC(CF)(c3ncc(F)cc3-c3c(F)cccc3F)C2)C[C@@H]1F (stereo partly drawn) [Example 116, N-[(3R,4S)-1-{5-[3-(2,6-difluorophenyl)-5-fluoropyridin-2-yl]-5-(fluoromethyl)-4,5-dihydro-1,2-oxazol-3-yl}-4-fluoropyrrolidin-3-yl]methanesulfonamide] | 100
Cc1cnc([C@@H]2CC(O[C@@H]3CC[C@H](NS(C)(=O)=O)C3)=NO2)c(-c2c(F)cc(F)cc2F)c1 (mixture of isomers) [Example 62, mixture of N-[(1R,3S)-3-({(5S)-5-[5-methyl-3-(2,4,6-trifluorophenyl)pyridin-2-yl]-4,5-dihydro-1,2-oxazol-3-yl}oxy)cyclopentyl]methanesulfonamide and N-[(1S,3R)-3-({(5S)-5-[5-methyl-3-(2,4,6-trifluorophenyl)pyridin-2-yl]-4,5-dihydro-1,2-oxazol-3-yl}oxy)cyclopentyl]methanesulfonamide] | 17
Cc1cnc([C@@H]2CC(N3CC[C@H](NS(=O)(=O)CF)C3)=NO2)c(-c2c(F)cc(F)cc2F)c1 [Example 56, 1-fluoro-N-[(3S)-1-{(5S)-5-[5-methyl-3-(2,4,6-trifluorophenyl)pyridin-2-yl]-4,5-dihydro-1,2-oxazol-3-yl}pyrrolidin-3-yl]methanesulfonamide] | 92
CS(=O)(=O)N[C@@H]1CN(C2=NOC(c3ncc(C(F)F)cc3-c3c(F)cc(F)cc3F)C2)CC1(F)F (stereo partly drawn) [Example 41, N-[(3R)-1-{5-[5-(difluoromethyl)-3-(2,4,6-trifluorophenyl)pyridin-2-yl]-4,5-dihydro-1,2-oxazol-3-yl}-4,4-difluoropyrrolidin-3-yl]methanesulfonamide] | 107
Cc1cnc(C2CC(O[C@H]3C[C@@H](NS(C)(=O)=O)C3)=NO2)c(-c2c(F)cccc2F)c1 (stereo partly shown) [Example 20, N-[(1s,3s)-3-({5-[3-(2,6-difluorophenyl)-5-methylpyridin-2-yl]-4,5-dihydro-1,2-oxazol-3-yl}oxy)cyclobutyl]methanesulfonamide] | 65
Cc1cnc([C@@H]2CC(N3C[C@H](F)[C@H](NS(=O)(=O)N(C)C)C3)=NO2)c(-c2c(F)cc(F)cc2F)c1 [Example 83, N′-[(3R,4S)-4-fluoro-1-{(5S)-5-[5-methyl-3-(2,4,6-trifluorophenyl)pyridin-2-yl]-4,5-dihydro-1,2-oxazol-3-yl}pyrrolidin-3-yl]-N,N-dimethylsulfuric diamide] | 103
Cc1ccc(C2CC(N3C[C@@H](NS(C)(=O)=O)C(F)(F)C3)=NO2)c(-c2ncc(F)cc2F)c1 (stereo partly drawn) [Example 106, N-[(3R)-1-{5-[2-(3,5-difluoropyridin-2-yl)-4-methylphenyl]-4,5-dihydro-1,2-oxazol-3-yl}-4,4-difluoropyrrolidin-3-yl]methanesulfonamide] | 108
CS(=O)(=O)N[C@H]1CCN(C2=NOC(c3ccccc3C3=CCCCC3)C2)C1 (stereo partly drawn) [Example 2, N-{(3S)-1-[5-(2′,3′,4′,5′-tetrahydro[1,1′-biphenyl]-2-yl)-4,5-dihydro-1,2-oxazol-3-yl]pyrrolidin-3-yl}methanesulfonamide] | 77
CS(=O)(=O)N[C@@H]1CN(C2=NOC(CO)(c3ncc(C(F)F)cc3-c3c(F)cccc3F)C2)CC1(F)F (stereo partly drawn) [Example 135, N-[(3R)-1-{5-[5-(difluoromethyl)-3-(2,6-difluorophenyl)pyridin-2-yl]-5-(hydroxymethyl)-4,5-dihydro-1,2-oxazol-3-yl}-4,4-difluoropyrrolidin-3-yl]methanesulfonamide] | 115
CS(=O)(=O)N[C@@H]1CN(C2=NOC(c3ncc(Cl)cc3-c3c(F)cc(F)cc3F)C2)C[C@@H]1F (stereo partly drawn) [Example 112, N-[(3R,4S)-1-{5-[5-chloro-3-(2,4,6-trifluorophenyl)pyridin-2-yl]-4,5-dihydro-1,2-oxazol-3-yl}-4-fluoropyrrolidin-3-yl]methanesulfonamide] | 98
CCS(=O)(=O)N[C@@H]1CN(C2=NOC(CF)(c3ncccc3-c3c(F)cccc3F)C2)CC1(F)F (stereo partly drawn) [Example 151, N-[(3R)-1-{5-[3-(2,6-difluorophenyl)pyridin-2-yl]-5-(fluoromethyl)-4,5-dihydro-1,2-oxazol-3-yl}-4,4-difluoropyrrolidin-3-yl]ethanesulfonamide] | 107
